According to DBAASP:
Values after ≈ are worked out from the molar mass of the structure shown. Blank lines part the entries; values can stand above or below the compound they belong to.

Legend:
Assay in all cases: ≥ marks a high value that may be exact or a test limit, other limits are often not marked, values filed in µg/mL are converted to µM
[1] = tested on: Pseudomonas aeruginosa H103
[2] = tested on: Escherichia coli UB1005
[3] = tested on: Salmonella enterica serovar Typhimurium
[4] = tested on: Candida albicans
[5] = tested on: Enterococcus faecalis ATCC 29212
[6] = tested on: Staphylococcus epidermidis
[7] = tested on: Staphylococcus aureus ATCC 25923
[8] = tested on: Micrococcus luteus ATCC 10240
[9] = tested on: Escherichia coli BL21AI
[10] = tested on: Micrococcus luteus ATCC 9341
[11] = tested on: Escherichia coli BW25113
[12] = tested on: Pseudomonas aeruginosa H1001
[13] = tested on: Salmonella enterica subsp. enterica serovar Typhimurium C77-31
[14] = tested on: Staphylococcus aureus ATCC 29213
[15] = tested on: Salmonella enterica subsp. enterica serovar Pullorum C79-13
[16] = tested on: Staphylococcus epidermidis ATCC 12228
[17] = tested on: Escherichia coli ATCC 25922

SMILES: CC[C@H](C)[C@H](N)C(=O)N[C@@H](CC(C)C)C(=O)N1CCC[C@H]1C(=O)N[C@@H](CCCCN)C(=O)N[C@@H](CCCCN)C(=O)N[C@@H](CCCCN)C(=O)N1CCC[C@H]1C(=O)N[C@@H](CCCCN)C(=O)N[C@@H](CCCCN)C(=O)N1CCC[C@H]1C(=O)N[C@@H](CCCCN)C(=O)N[C@@H](CCCN=C(N)N)C(=O)N[C@@H](CCCN=C(N)N)C(N)=O [ILPKKKPKKPKRR]
MIC [10]: ≥ 100 µM

SMILES: CC[C@H](C)[C@H](NC(=O)[C@H](Cc1ccccc1)NC(=O)[C@@H](N)Cc1ccccc1)C(=O)N[C@@H](Cc1ccc(O)cc1)C(=O)N[C@H](C(=O)N[C@@H](Cc1c[nH]c2ccccc12)C(=O)N[C@@H](CCCN=C(N)N)C(=O)N[C@@H](CCCN=C(N)N)C(=O)N[C@@H](CCCN=C(N)N)C(=O)O)C(C)C [FFIYVWRRR]
MIC [1]: 15.3 µM (≈ 20.5 µg/mL)
MIC [2]: 3.8 µM (≈ 5.1 µg/mL)
MIC [3]: 7.6 µM (≈ 10.2 µg/mL)
MIC [4]: 7.6 µM (≈ 10.2 µg/mL)
MIC [5]: 3.8 µM (≈ 5.1 µg/mL)
MIC [6]: 1 µM (≈ 1.34 µg/mL)
MIC [7]: 1.9 µM (≈ 2.55 µg/mL)

SMILES: CC[C@H](C)[C@H](NC(=O)[C@@H](N)Cc1ccccc1)C(=O)N[C@@H](CCCN=C(N)N)C(=O)N[C@@H](Cc1c[nH]c2ccccc12)C(=O)N[C@@H](CCCN=C(N)N)C(=O)N[C@@H](Cc1ccccc1)C(=O)N[C@@H](CCCN=C(N)N)C(=O)N[C@@H](Cc1c[nH]c2ccccc12)C(=O)N[C@@H](Cc1c[nH]c2ccccc12)C(=O)N[C@@H](CCCN=C(N)N)C(=O)N[C@@H](Cc1c[nH]c2ccccc12)C(=O)N[C@@H](CCCN=C(N)N)C(=O)N[C@@H](CCCN=C(N)N)C(N)=O [FIRWRFRWWRWRR]
MIC [12]: 2.85 µM (≈ 6 µg/mL)

SMILES: CC(C)C[C@H](NC(=O)[C@H](Cc1ccccc1)NC(=O)[C@H](CCCCN)NC(=O)[C@H](Cc1c[nH]c2ccccc12)NC(=O)[C@H](Cc1c[nH]c2ccccc12)NC(=O)[C@H](CCCN=C(N)N)NC(=O)[C@H](CCCCN)NC(=O)[C@H](CC(C)C)NC(=O)[C@@H](N)CCCN=C(N)N)C(=O)O [RLKRWWKFL]
MIC [1]: 9.8 µM (≈ 13.1 µg/mL)
MIC [2]: 1.2 µM (≈ 1.6 µg/mL)
MIC [3]: 4.9 µM (≈ 6.53 µg/mL)
MIC [4]: 9.8 µM (≈ 13.1 µg/mL)
MIC [5]: 9.8 µM (≈ 13.1 µg/mL)
MIC [6]: 1.2 µM (≈ 1.6 µg/mL)
MIC [7]: 2.4 µM (≈ 3.2 µg/mL)

SMILES: CC[C@H](C)[C@H](NC(=O)[C@H](Cc1c[nH]c2ccccc12)NC(=O)[C@H](CCCCN)NC(=O)[C@H](CCCCN)NC(=O)[C@H](CC(C)C)NC(=O)[C@H](Cc1c[nH]c2ccccc12)NC(=O)[C@H](CCCCN)NC(=O)[C@@H](N)Cc1c[nH]c2ccccc12)C(=O)N[C@@H](CCCCN)C(=O)O [WKWLKKWIK]
MIC [1]: 2.9 µM (≈ 3.82 µg/mL)
MIC [2]: 5.8 µM (≈ 7.63 µg/mL)
MIC [3]: 11.5 µM (≈ 15.1 µg/mL)
MIC [4]: 5.8 µM (≈ 7.63 µg/mL)
MIC [5]: 11.5 µM (≈ 15.1 µg/mL)
MIC [6]: 0.458 µM (≈ 0.603 µg/mL)
MIC [7]: 0.7 µM (≈ 0.921 µg/mL)

SMILES: CC[C@H](C)[C@H](NC(=O)[C@H](CCCN=C(N)N)NC(=O)[C@H](CCCN=C(N)N)NC(=O)[C@@H]1CCCN1C(=O)[C@H](Cc1c[nH]c2ccccc12)NC(=O)[C@H](CCCN=C(N)N)NC(=O)[C@@H]1CCCN1C(=O)[C@H](CCCN=C(N)N)NC(=O)[C@@H]1CCCN1C(=O)[C@H](CC(C)C)NC(=O)[C@H](Cc1ccc(O)cc1)NC(=O)[C@@H]1CCCN1C(=O)[C@@H]1CCCN1C(=O)[C@H](CCCCN)NC(=O)[C@H](CC(=O)O)NC(=O)[C@@H](N)C(C)C)C(=O)N[C@@H](Cc1ccc(O)cc1)C(=O)N[C@@H](CC(N)=O)C(=O)N[C@@H](CCCN=C(N)N)C(=O)NCC(=O)O [VDKPPYLPRPRWPRRIYNRG]
MIC [12]: 0.0591 µM (≈ 0.15 µg/mL)

Further lines, results first:

MIC [1]: 19.1 µM (≈ 26.2 µg/mL)
MIC [2]: 2.4 µM (≈ 3.29 µg/mL)
MIC [3]: 9.6 µM (≈ 13.2 µg/mL)
MIC [4]: 19.1 µM (≈ 26.2 µg/mL)
MIC [5]: 9.6 µM (≈ 13.2 µg/mL)
MIC [6]: 1.2 µM (≈ 1.65 µg/mL)
MIC [7]: 2.4 µM (≈ 3.29 µg/mL)
SMILES: CC[C@H](C)[C@H](NC(=O)[C@H](Cc1c[nH]c2ccccc12)NC(=O)[C@H](Cc1c[nH]c2ccccc12)NC(=O)[C@H](CCCCN)NC(=O)[C@H](Cc1c[nH]c2ccccc12)NC(=O)[C@H](CCCN=C(N)N)NC(=O)[C@H](CCCN=C(N)N)NC(=O)[C@H](CCCCN)NC(=O)[C@@H](N)CC(C)C)C(=O)O [LKRRWKWWI]

MIC [8]: ≥ 62.6 µM
MIC [9]: ≥ 62.6 µM
SMILES: CC[C@H](C)[C@H](NC(=O)[C@H](Cc1ccc(O)cc1)NC(=O)[C@@H](NC(=O)[C@@H]1CCCN1C(=O)[C@H](CCCN=C(N)N)NC(=O)[C@H](CC(N)=O)NC(=O)[C@H](CC(N)=O)NC(=O)CN)C(C)C)C(=O)N[C@@H](C)C(=O)N[C@@H](CCC(N)=O)C(=O)N1CCC[C@H]1C(=O)N[C@@H](CCCN=C(N)N)C(=O)N1CCC[C@H]1C(=O)N1CCC[C@H]1C(=O)N[C@@H](Cc1cnc[nH]1)C(=O)N1CCC[C@H]1C(=O)N[C@@H](C)C(=O)N[C@@H](CC(C)C)C(N)=O [GNNRPVYIAQPRPPHPAL]

MIC [10]: 0.4 µM (≈ 0.633 µg/mL)
SMILES: NCCCC[C@H](NC(=O)[C@@H](N)Cc1c[nH]c2ccccc12)C(=O)N[C@@H](Cc1c[nH]c2ccccc12)C(=O)N1CCC[C@H]1C(=O)N[C@@H](Cc1c[nH]c2ccccc12)C(=O)N[C@@H](Cc1c[nH]c2ccccc12)C(=O)N1CCC[C@H]1C(=O)N[C@@H](Cc1c[nH]c2ccccc12)C(=O)N[C@@H](CCCN=C(N)N)C(=O)N[C@@H](CCCN=C(N)N)C(N)=O [WKWPWWPWRR]

MIC [8]: 6.39 µM (≈ 16 µg/mL)
MIC [9]: 3.19 µM (≈ 8 µg/mL)
SMILES: CC[C@H](C)[C@H](NC(=O)[C@H](CCCN=C(N)N)NC(=O)[C@H](CCCN=C(N)N)NC(=O)[C@@H]1CCCN1C(=O)[C@@H]1CCCN1C(=O)[C@H](CCCN=C(N)N)NC(=O)[C@@H]1CCCN1C(=O)[C@H](CCCN=C(N)N)NC(=O)[C@@H]1CCCN1C(=O)[C@H](CC(C)C)NC(=O)[C@H](Cc1ccc(O)cc1)NC(=O)[C@@H]1CCCN1C(=O)[C@@H]1CCCN1C(=O)[C@H](CCCCN)NC(=O)[C@H](CC(=O)O)NC(=O)[C@@H](N)C(C)C)C(=O)N[C@@H](Cc1ccc(O)cc1)C(=O)N[C@@H](CC(N)=O)C(=O)N[C@@H](CCCN=C(N)N)C(=O)N[C@@H](CC(N)=O)C(=O)O [VDKPPYLPRPRPPRRIYNRN]

MIC [11]: 8 µM (≈ 18.2 µg/mL)
SMILES: CC[C@H](C)[C@H](NC(=O)[C@@H]1CCCN1C(=O)[C@H](CCCN=C(N)N)NC(=O)[C@H](CCCN=C(N)N)NC(=O)[C@H](Cc1ccccc1)NC(=O)[C@@H](N)CCCN=C(N)N)C(=O)N[C@@H](CCCN=C(N)N)C(=O)N[C@@H](CCCN=C(N)N)C(=O)N[C@@H](CCCN=C(N)N)C(=O)N1CCC[C@H]1C(=O)N[C@H](C(=O)N[C@@H](CCCN=C(N)N)C(=O)N1CCC[C@H]1C(=O)N1CCC[C@H]1C(=O)N[C@@H](Cc1ccccc1)C(=O)N[C@@H](Cc1ccc(O)cc1)C(=O)N1CCC[C@H]1C(=O)O)[C@@H](C)CC [RFRRPIRRRPIRPPFYP]

MIC [12]: 2.53 µM (≈ 4 µg/mL)
SMILES: CC[C@H](C)[C@H](NC(=O)[C@H](CCCCN)NC(=O)[C@H](Cc1c[nH]c2ccccc12)NC(=O)[C@H](CCCCN)NC(=O)[C@@H](N)CCCCN)C(=O)N[C@H](C(=O)N[C@H](C(=O)N[C@H](C(=O)N[C@@H](CCCCN)C(=O)N[C@@H](Cc1c[nH]c2ccccc12)C(=O)N[C@@H](CCCCN)C(=O)N[C@@H](CCCCN)C(N)=O)[C@@H](C)CC)C(C)C)C(C)C [KKWKIVVIKWKK]

MIC [13]: 8 µM (≈ 16.6 µg/mL)
MIC [14]: 4 µM (≈ 8.3 µg/mL)
MIC [15]: 4 µM (≈ 8.3 µg/mL)
MIC [16]: 32 µM (≈ 66.4 µg/mL)
MIC [5]: 16 µM (≈ 33.2 µg/mL)
MIC [17]: 2 µM (≈ 4.15 µg/mL)
SMILES: NCCCC[C@H](NC(=O)CNC(=O)[C@H](CC(N)=O)NC(=O)[C@H](CCCCN)NC(=O)[C@H](Cc1c[nH]c2ccccc12)NC(=O)[C@H](CCCCN)NC(=O)[C@H](Cc1c[nH]c2ccccc12)NC(=O)[C@H](CCCCN)NC(=O)[C@@H](N)Cc1c[nH]c2ccccc12)C(=O)N[C@@H](Cc1c[nH]c2ccccc12)C(=O)N[C@@H](CCCCN)C(=O)N[C@@H](Cc1c[nH]c2ccccc12)C(=O)N[C@@H](CCCCN)C(=O)N[C@@H](Cc1c[nH]c2ccccc12)C(=O)O [WKWKWKNGKWKWKW]

MIC [12]: ≥ 229 µM
SMILES: NCCCC[C@H](NC(=O)[C@H](CCCCN)NC(=O)[C@H](Cc1c[nH]c2ccccc12)NC(=O)[C@H](CCCCN)NC(=O)[C@H](Cc1c[nH]c2ccccc12)NC(=O)[C@H](Cc1c[nH]c2ccccc12)NC(=O)[C@@H](N)CCCCN)C(N)=O [KWWKWKK]
